Data published in patent US8357653B2, “System and method for inhibiting cellular proliferation with tachykinins” (priority 2000, dated 2013).
Values joined by “and” are separate entries in the source; they are usually repeats but may differ in a detail not shown here. Equal values may be shown once. Read-outs that look alike come from different tables or passages of the source. Ends that are not written are not given here. Peptide text beside a SMILES is read from it.

Key:
[1] = test system: Lewis lung carcinoma cells; test: in vivo tumorigenicity model, Lewis lung carcinoma in C57Bl/6 mice, intra-tumor injection; details: for tumor growth inhibition: Cisplatin group
Experimental: The inhibitory action of Sialokinin I and II, SEQ. ID. NO. 1 and NO. 2, against tumor tissue proliferation (Lewis lung carcinoma) was investigated. To test the efficacy of three different concentrations of peptide test articles in an in vivo tumorigenicity model using Lewis lung carcinoma cells.
Lewis lung carcinoma cells were obtained from ATCC and cultured in monolayers in DMEM supplemented with 10% heat-inactivated FBS, 4 mM L-glutamine, 100 μg/ml streptomycin and 100 units/ml penicillin for two passage cycles at 37° C. in 95% air and 5% CO2. Cells were harvested from subconfluent cultures by 60-second exposure to trypsin/EDTA, washed in serum free medium and brought to the correct concentration of cells in PBS.
On day 0, 35 female C57Bl/6 mice 6-8 weeks of age were shaved on the right lateral thorax and injected subcutaneously with 1.0×10^6 Lewis lung carcinoma cells. A total of 35 mice were injected so that 25 tumor-bearing mice with the correct tumor size could be used for the study. Tumors were allowed to develop for four days post cell injection at which time biweekly tumor measurements (L×W), in millimeters, were recorded for 3 weeks. […] The data are presented as mean tumor mass plotted over time.
When tumors reached a size of 100-200 mg, 25 mice were selected and randomly sorted into five groups. The five groups of Lewis lung tumor bearing mice were used to test three different test article concentrations.
The first group contained animals injected with the test article carrier as a control group. The control animals were injected with 50 μl intra-tumor injections of sterile saline and 1% bovine serum albumin (BSA), three times per week for a total of 5 doses. The control group contained mice that received the vehicle as a negative control.
The second group contained animals treated with 6 mg/kg of Cisplatin (Platinol; Bristol-Myers Squibb Co.) as a positive control administered according to manufacture's specifications by intravenous tail vein injection, every fourth day for a total of 3 doses. The Cisplatin group contained mice that received Cisplatin as a positive control.
The third group contained animals that received 5 μM of test article dissolved in sterile saline and 1% bovine serum albumin (BSA) injected intra-tumor with 50 μl injections, three times per week for a total of 5 doses.
The fourth group contained animals that received 10 μM of test article dissolved in sterile saline and 1% bovine serum albumin (BSA) injected intra-tumor with 50 μl injections, three times per week for a total of 5 doses.
The fifth group contained animals that received 100 μM of test article dissolved in sterile saline and 1% bovine serum albumin (BSA) injected intra-tumor with 50 μl injections, three times per week for a total of 5 doses.
Injections began on the day that animals were randomly sorted into one of five groups. Animals in the control, 5 μM, 10 μM, and 100 μM groups were dosed every other workday with an intra-tumor subcutaneous injection for a total of 5 doses. Tumor size was measured and recorded twice weekly using calipers. Mice were examined twice weekly for morbidity, and any abnormal findings were recorded. When tumors reached a mean target size of 1000 mg in control mice the animals were euthanized and two mice from each group were randomly selected and sent to necropsy for tumor and tissue collection. Mice were photographed before harvesting tumors and major organs (heart, lung, liver, kidney, spleen, GI tract and brain). No mice died while on study.

guinea pig ileum = details: read-out: K0.5; cited from earlier work
ASM cells = details: cited from earlier work; for proliferative response in ASM cells: dose range of 10^−12 to 10^−6M
[2] = test system: Lewis lung carcinoma cells; test: in vivo tumorigenicity model, Lewis lung carcinoma in immuno-compromised (nu/nu) mice, intravenous injection
Experimental: To test the efficacy of different concentrations of the Sialokinin peptides, test articles, SEQ. ID. NO. 1 and NO. 2, in an in vivo tumorigenicity model, a study was conducted with Lewis lung carcinoma in immuno-compromised (nu/nu) mice. Lewis lung carcinoma cells were cultured in Dulbecco's Modified Eagles Medium (DMEM), supplemented with 4 mM L-glutamine, 0.1 mM non-essential amino acids, 10% heat inactivated fetal bovine serum (FBS), […] Gentamicin and 250 μg/ml Fungizone. Cells were cultured in 5% CO2 and 95% air at 37° C. Exponentially growing cells were harvested and washed twice in phosphate buffered saline (PBS) to remove any traces of trypsin or serum. The washed cells were suspended in Hanks Balanced Salt Solution (HBSS) for injection.
Athymic nude mice were injected subcutaneously in the right lateral thorax with 10^4 Lewis lung carcinoma cells. A total of 38 mice were injected, with 33 tumor-bearing mice used in the study. When tumors reached a target window size of 100-200 mg, 33 tumor-bearing mice were randomly selected and sorted into one of three groups. Group 1 contained mice that received the test article carrier by an IV injection as a negative control. […]
Tumor measurements were recorded three times a week using calipers. […] Clinical observations on each mouse were done twice weekly for signs of toxicity and morbidity and any abnormal findings were recorded. […]

warts = test: human wart trial, subcutaneous injection into the wart; assay type: in vivo
Experimental: A trial was conducted to observe the anti-proliferative action of Sialokinins, SEQ. ID. NO. 1 and NO. 2, in the treatment of warts in a human application. This trial, conducted by a dermatologist, involved four volunteer human subjects who received two (2) subcutaneous injections of Sialokinin I and Sialokinin II into the wart. Injections of 100 μl of 5 μM were administered subcutaneously to each volunteer.
The warts chosen for this trial had been diagnosed as stable and thus any observable change in the size of the wart to the injections would be significant. […] Of the 3 patients, reductions in size of 19%, 79%, and 31% were observed. When no further treatments were administered, no further reductions were observed.

spleen cell = details: 25 μg/ml of salivary gland extract, cited from earlier work
[3] = two 100 μl injections of 5 μM into the wart

N.N.[Cl][Pt][Cl] [Cisplatin]
body weight change ([1]; 6 mg/kg intravenous): significant weight loss
growth compared to control tumor growth ([1]; 6 mg/kg intravenous, day 7): 58%
growth compared to control tumor growth ([1]; 6 mg/kg intravenous, day 10): 93%
growth compared to control tumor growth ([1]; 6 mg/kg intravenous, day 15): 73%
tumor size compared to control group mice ([1]; 6 mg/kg intravenous, p<0.05): significantly smaller tumors
tumor growth inhibition ([1]; day 7): 42%
tumor growth inhibition ([1]; day 10): 7%
tumor growth inhibition ([1]; day 15): 27%

CSCC[C@H](NC(=O)[C@H](CC(C)C)NC(=O)CNC(=O)[C@H](Cc1ccc(O)cc1)NC(=O)[C@H](Cc1ccccc1)NC(=O)[C@H](CCCCN)NC(=O)[C@H](CC(=O)O)NC(=O)CNC(=O)[C@@H](NC(=O)[C@@H](N)CC(=O)O)[C@@H](C)O)C(N)=O [Sialokinin II, Asp^1-Thr^2-Gly^3-Asp^4-Lys^5-Phe^6-Tyr^7-Gly^8-Leu^9-Met^10-NH2] (H-DTGDKFYGLM-NH2)
EC50 (guinea pig ileum): 5.07 nM

Arg^1-Pro^2-Lys^3-Pro^4-Gln^5-Gln^6-Phe^7-Phe^8-Gly^9-Leu^10-Met^11-NH2 [Substance P]
concentration eliciting the maximum proliferative response (ASM cells; ASM cells): 10^−4 M
ASM cell number (ASM cells; concentration range of 10^−14 to 10^−4M): dose-dependent increases in ASM cell number
EC50 (guinea pig ileum): 4.94 nM

Asn^1-Thr^2-Gly^3-Asp^4-Lys^5-Phe^6-Tyr^7-Gly^8-Leu^9-Met^10-NH2 (NTGDKFYGLM-NH2; listed as Aedes aegypti) [SK1]
necropsy, toxicity or tissue necrosis ([2]; 200 μl intravenous injection of 5 μM and 10 μM): no detectable toxicity or tissue necrosis
weight loss in study animals ([2]; intravenous 5 μM and 10 μM, during the study period): No weight loss
side effects (warts; first clinical exposure, human): no side effects were detected
systemic symptoms (warts; two 100 μl injections of 5 μM): no systemic symptoms were detected
toxicity in trial subjects (warts; two 100 μl injections of 5 μM): no measured or observed toxicity
patients showing a reduction in wart size (warts; [3]): 3 of 4
reduction in wart size (individual patients) (warts; [3]): 19% and 79% and 31%
suppression of spleen cell proliferation (spleen cell; stimulated with IL-2, antigen activated cells): 39%
suppression of spleen cell proliferation (spleen cell; stimulated with IL-2, naïve cells): 66%
suppression of spleen cell proliferation (spleen cell; stimulated with IL-4, antigen activated cells): 27%
suppression of spleen cell proliferation (spleen cell; stimulated with IL-4, naïve cells): 39%
EC50 (guinea pig ileum): 6.58 nM

Asp^1-Met^2-His^3-Asp^4-Phe^5-Phe^6-Val^7-Gly^8-Leu^9-Met^10-NH2 (DMHDFFVGLM-NH2) [NKB]
proliferative response in ASM cells (ASM cells): Neither NKA nor NKB induced significant proliferative responses

His^1-Lys^2-Thr^3-Asp^4-Ser^5-Phe^6-Val^7-Gly^8-Leu^9-Met^10-NH2 (HKTDSFVGLM-NH2) [NKA]
proliferative response in ASM cells (ASM cells): Neither NKA nor NKB induced significant proliferative responses
ASM cell count (ASM cells; highest administered concentration of 10^−4M): relatively modest increase in ASM cell count
